Laboratory results as given in patent publication US5594024A, “Centrally actig substituted phenylazacycloalkanes” (priority 1995, dated 1997).
Like-named read-outs stand apart in the source and are kept apart here. Values belong to the molecule of their own block, whether it stands above or below them.

Experiments:
DA receptor [1] = experiment: DA metabolism (DOPAC, HVA levels) in habituated rats; type: in vivo, rat (male Sprague-Dawley); details: for response vs control in vivo at 100 µmol/kg: Rattus norvegicus, sc, 1 h
Description: (§1) Footnotes Table 3. The rats were habituated to the motility meters 60 min
The rats were immediately killed after the activity session, striata
and limbic levels of DOPAC and 5HIAA were measured by means of HPLCEC. *p
In the experiments with habituated rats no NSD was administered and the animals were killed one hour after drug administration. […] The levels were expressed as % of controls (DOPAC and 5-HIAA see Table 3). The in vivo brain microdialysis experiments were performed in conscious rats as described by Waters et al., Eur. J. Pharm., 187, 425-34 (1990).
(§2) Injection volumes were 5 mL/kg.
After the activity session the rats were killed and the brain levels of HVA and DOPAC were measured (data are expressed as means ±SEM).

5-HT1A = molecular target: T1, 5-HT1A (Rattus norvegicus, UniProt P19327); experiment: 5-HT1A radioligand binding ([3H]-8-OH-DPAT); parameters: species or system rat (male Sprague-Dawley)
T1 construct: the whole brain with the exception of the brainstem and cerebellum was rapidly removed; from tissue
T1 sequence (P19327 1-422): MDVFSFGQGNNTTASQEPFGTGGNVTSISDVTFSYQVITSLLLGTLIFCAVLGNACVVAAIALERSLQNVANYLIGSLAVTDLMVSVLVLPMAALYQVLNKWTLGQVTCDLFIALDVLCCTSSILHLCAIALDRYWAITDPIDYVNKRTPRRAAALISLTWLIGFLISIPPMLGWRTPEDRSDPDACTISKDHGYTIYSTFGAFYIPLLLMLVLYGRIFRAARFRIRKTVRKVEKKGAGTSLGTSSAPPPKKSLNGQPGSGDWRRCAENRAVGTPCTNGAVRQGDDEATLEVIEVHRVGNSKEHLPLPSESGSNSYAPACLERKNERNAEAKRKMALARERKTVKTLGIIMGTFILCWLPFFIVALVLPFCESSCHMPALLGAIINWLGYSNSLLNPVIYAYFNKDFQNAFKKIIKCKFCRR
Description: ^b Serotonin 5HT1A ([^3 H]-8OH-DPAT, agonist) rat cortex.
5-HT1A radioligand binding. Male Sprague-Dawley rats (160-225 g) were killed by decapitation and the whole brain with the exception of the brainstem and cerebellum was rapidly removed, weighed and chilled in ice-cold 0.9% NaCl. Each brain was homogenized (Ultra-Turrax, 20 s) in 10 mL ice-cold 50 mM Tris buffer (pH 8.0 at 25° C.) containing 120 mM NaCl, 4 mM CaCl2 and 4 mM MgCl2 and centrifuged at 20,000 g's at 4° C. for 10 minutes. Pellets were resuspended in 10 mL fresh buffer and preincubated for 10 minutes in a 37° C. waterbath and then recentrifuged. Final pellets were homogenized in 100 volumes (w/v) of Tris buffer (as described above) containing 10 μM pargyline. The incubation tubes were kept on ice in triplicates and received 100 μL drug solution in water (or water for total binding) and 1000 μL membrane suspension (corresponds to 10 mg original tissue). The binding experiment was initiated by addition of 100 μL of (3H)-8-OH-DPAT (specific activity 143-158 Ci/mmol) in ascorbic acid (the final incubation concentration was 1 nM (3H)-8-OH-DPAT in 0.1% ascorbic acid). After incubation for 15 minutes at 37° C. the reaction was terminated by separation of the free radioligand from bound by rapid vacuum filtration using a cell harvester equipment (O. M. Teknik, Denmark). The tubes were rinsed with 4 mL and the filters (Whatman GF/F 25 mm) were washed twice with 4 mL ice-cold 0.9% NaCl.
The radioactivity of the filters was measured in a liquid scintillation counter (efficiency 41%) in 5 mL Picofluor®. Specific binding (70-75% of total binding) was defined as the radioactivity displaced by 10 μM 5-HT. IC50 values were calculated by semi-log plot and linear regression analysis.

habituated rats = experiment: Locomotor activity and behavior in habituated rats; type: in vivo, rat (male Sprague-Dawley); details: 100 μmol/kg sc, habituated rats; for response vs control in vivo at 100 µmol/kg: Rattus norvegicus, 1 h, read-out: Motor Activity
Description: as §1
prior to the activity session.
as §2
Locomotor activity was measured in rats which were habituated 60 minutes to the activity meters before drug injection. The activity was measured for the subsequent 60 minutes and expressed as % of controls (means ±SEM, n=4).

D2 receptors = molecular target: T2, D2 receptors (Rattus norvegicus, UniProt P61169); experiment: D2 antagonist binding ([3H]-spiperone), rat striatum
T2 construct: Preparation of rat striatal membranes for (3H)-spiperone; from tissue; host or cells: rat striatum (striatal membranes)
T2 sequence (P61169 whole entry): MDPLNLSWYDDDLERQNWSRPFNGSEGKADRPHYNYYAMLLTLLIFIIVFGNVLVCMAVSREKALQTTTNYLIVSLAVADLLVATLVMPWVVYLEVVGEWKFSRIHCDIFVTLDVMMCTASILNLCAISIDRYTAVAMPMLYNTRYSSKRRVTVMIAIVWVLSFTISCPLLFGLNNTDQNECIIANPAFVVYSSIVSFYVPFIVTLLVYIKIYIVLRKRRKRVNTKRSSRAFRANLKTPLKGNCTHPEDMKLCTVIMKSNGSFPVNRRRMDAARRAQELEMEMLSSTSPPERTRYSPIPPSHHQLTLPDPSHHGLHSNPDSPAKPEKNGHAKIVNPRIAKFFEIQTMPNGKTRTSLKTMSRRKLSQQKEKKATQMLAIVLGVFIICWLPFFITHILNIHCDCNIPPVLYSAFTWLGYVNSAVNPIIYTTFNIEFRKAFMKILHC
Description: D2 antagonist binding. Preparation of rat striatal membranes for (3H)-spiperone (specific activity 21-24 Ci/mmol) binding was carried out in a similar manner as described for D1-binding, Hyttel et al., J. Neural. Transm., 68, 171 (1987).
IC50 values were calculated by semi-log plot and linear regression analysis.

5-HT receptor = experiment: 5-HTP accumulation (5-HT synthesis rate) in non-pretreated rats after NSD 1015; type: in vivo, rat (male Sprague-Dawley); details: 100 sc
Description: observations are commented to the right. After the session the rats were
accumulation in the NErich cortical regions and 5HTP in the limbic
as §2

DA receptor [2] = experiment: DOPA accumulation (DA synthesis rate) in non-pretreated rats after NSD 1015; details: 100 sc
non-pretreated rats = experiment: Locomotor activity and gross behavior in non-habituated (non-pretreated) rats; details: 100 sc, non-pretreated rats
Description: Immediately after drug administration, the rats were placed in the test cages (one rat/cage) and put into the motility meters. […] Observations of gross behavior were made throughout the activity sessions through semi-transparent mirrors.
Animals used in the biochemical and motor activity experiments were male rats of the Sprague-Dawley strain (ALAB, Sollentuna, Sweden), weighing 200-300 g. The rats were kept 5 per cage with free access to water and food (except for the starved animals for the experiments with per oral administration, who were only allowed water the last 18 hours before testing), at least one week from arrival until used in the experiments.
All substances to be tested were dissolved in saline immediately before use, occasionally with the addition of a few drops of glacial acetic acid and/or moderate heating in order to obtain complete dissolution. Injection volumes were 5 mL/kg.
Analysis of variance (ANOVA) followed by Fischer's test was used for the statistical calculations.
In vivo behavioral data was obtained with rats injected with drug and 5 minutes later put into the motility chambers for the first time. The motor activity was measured for the subsequent 30 minutes (accumulated counts/30 minutes) and expressed as % of saline treated controls.

[3] = [3H]-8-OH-DPAT, rat cortex, read-out: in vitro binding IC50, 5HT1A
[4] = [3H]-spiperone, rat striatum, read-out: in vitro binding IC50, D2 -spip
[5] = 100 μmol/kg sc, habituated rats

SMILES: CCCN1CCCC(c2cccc(C#N)c2)C1 (racemic) [(+)-S-34]
response vs control in vivo at 100 µmol/kg (DA receptor [1]; read-out: DOPAC limbic): 207 ± 6%
response vs control in vivo at 100 µmol/kg (DA receptor [1]; read-out: DOPAC striatum): 291 ± 16%

IC50 (5-HT1A; [3]): 1.4 µM
SMILES: CCCN1CCCC(c2ccccc2OS(=O)(=O)C(F)(F)F)C1 (racemic) [Racemic-19, 3-((2-(Trifluoromethyl)sulfonyl)oxyphenyl-N-n-propyl)piperidine]
Behavioral observations (habituated rats): No activation
response vs control in vivo at 100 µmol/kg (habituated rats; 60 min): 101 ± 14%

IC50 (D2 receptors; [4]): 71 µM
IC50 (5-HT1A; [3]): 14 µM
SMILES: CCCN1CCCC(c2ccc(OS(=O)(=O)C(F)(F)F)cc2)C1 (racemic) [Racemic-20, 3-((4-(Trifluoromethyl)sulfonyl)oxyphenyl-N-n-propyl)piperidine]

IC50 (D2 receptors; [4]): 4 µM
IC50 (5-HT1A; [3]): 3.2 µM
SMILES: CCCN1CCC(c2cccc(OS(=O)(=O)C(F)(F)F)c2)C1 (racemic) [Racemic-21, 3-((3-(Trifluoromethyl)sulfonyl)oxyphenyl-N-n-propyl)pyrrolidine]
Behavioral observations (habituated rats): No activation
response vs control in vivo at 100 µmol/kg (habituated rats; 60 min): 93 ± 18%

SMILES: C=Cc1cccc([C@@H]2CCCN(CCC)C2)c1 [(-)-R-41]
5-HTP acc Limbic Region (5-HT receptor): 65 ± 2 % of saline controls
DOPA acc Cortex (DA receptor [2]): 121 ± 29 % of saline controls
DOPA acc Stratium (DA receptor [2]): 171 ± 15 % of saline controls
Gross Behavioral Observations (non-pretreated rats): No change
Motor Act. (non-pretreated rats; 30 min): 125 ± 13 % of saline controls

SMILES: O=S(=O)(Oc1cccc([C@@H]2CCCN(CCc3ccccc3)C2)c1)C(F)(F)F [Compound S-18]
IC50 (D2 receptors): 0.24 µM
IC50 (5-HT1A; [3]): 0.23 µM

IC50 (D2 receptors; [4]): 16 µM
IC50 (5-HT1A; [3]): 2 µM
SMILES: CCCN1CCC[C@@H](c2cccc(C(=O)OC)c2)C1 [Compound S-25, S-3-(3-(Methoxycarbonyl)phenyl-N-n-propyl)piperidine]

SMILES: N#Cc1cccc([C@@H]2CCCNC2)c1 [Compound S-31, S-3-(3-Cyanophenyl)piperidine]
IC50 (D2 receptors; [4]): 16 µM
IC50 (5-HT1A): 10 µM
DOPAC limbic (DA receptor [1]; [5]): 153 ± 1%
DOPAC striatum (DA receptor [1]; [5]): 167 ± 8 % of saline treated controls
Behavioral observations (habituated rats): Activation
Motor Activity (habituated rats; 60 min): 431 ± 80 % of saline treated controls

SMILES: CC(C)N1CCC[C@@H](c2cccc(C#N)c2)C1 [Compound S-35, S-3-(3-Cyanophenyl-N-iso-propyl)piperidine]
IC50 (D2 receptors; read-out: in vitro binding IC50, D2 -spip, [3H]-spiperone, rat striatum): 4.3 µM
IC50 (5-HT1A; [3]): 16 µM
response vs control in vivo at 100 µmol/kg (DA receptor [1]; read-out: DOPAC striatum): 251 ± 18%
Behavioral observations (habituated rats): Activation
